Some results are limits rather than exact numbers.

Assay [1] deals with GCN2 kinase (Homo sapiens (Human), UniProt Q9P2K8). The experiment in a line: GCN2 Enzyme Inhibition Assay (Transcreener ADP2 fluorescence polarization). It counts as biochemical. The note with it: 280 μM ATP, 200 μM (RS)7 peptide, 4 nM GCN2, 25° C.; for Ki: Ki(app). The procedure, abridged: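 Transcreener ADP2 fluorescence polarization detection of ADP from 4 nM GCN2 with (RS)7 substrate in 25 mM Tris-HCl pH 7.5, 50 mM NaCl, 10 mM MgCl2, 1 mM DTT. Compound pre-incubated with enzyme 10 min at 25 °C; reaction started by ATP, run 1 h at 25 °C. IC50 and Ki(app) by tight-binding fit.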
On the technique in general: Fluorescence polarisation rises when a labelled molecule tumbles more slowly, as on binding a larger partner.

Assay [2] addresses intracellular GCN2 (phosphorylation of the GCN2 substrate eIF2α) (Homo sapiens (Human), UniProt Q9P2K8). The experiment in a line: GCN2 Cellular Inhibition Assay (AlphaScreen SureFire P-eIF2α Ser51, borrelidin-treated U2OS cells). It counts as cell-based. The note with it: 10 μM borrelidin, 1 h, phosphorylated eIF2α Ser51, read-out: GCN2 Biomarker (IC50). How it is done: Compounds can be screened for their ability to inhibit intracellular GCN2 using an AlphaScreen assay (Perkin Elmer) to detect phosphorylation of the GCN2 substrate eIF2α in borrelidin-treated cells. U2OS cells are plated at 5,000 cells per well in 384-well white polystyrene plates (Corning 3570) in McCoy's 5A media (GIBCO 26600-023) supplemented with 10% foetal bovine serum (SAFC 12103C), Penicillin/Streptomycin solution diluted 1:100 (Sigma P0781), and 2 mM L-glutamine (Sigma G7513), and allowed to adhere overnight at 37° C. in 5% CO2. Compounds are then added to the cell media from a final concentration of 40 μM in 4-fold serial dilutions. Borrelidin (FluoroChem M01440) is immediately added to the wells to a final concentration of 10 μM and the cells are incubated for 1 h at 37° C. in 5% CO2. After 1 h of treatment with borrelidin, the media is removed, and the cells are lysed with lysis buffer (TGR BioSceinces TGRLB) at ambient temperature.
An AlphaScreen SureFire P-eIF2α (Ser51) assay kit (Perkin Elmer TGREIF2S) was used to measure levels of eIF2α phosphorylated on Serine 51. Anti-phosphorylated eIF2α Ser51 antibody-linked acceptor beads (TGR BioScience 6760617) are added to the cell homogenate (diluted 1:250 into a mixture of activation (TGR BioScience TGRAB) and reaction buffer (TGR BioScience TGREIF2S) prepared immediately before use). The plate is then incubated for 2 h at ambient temperature in the dark. Anti-eIF2α antibody-linked donor beads (TGR BioScience 6760617) were then added (diluted 1:100 in dilution buffer (TGR BioScience TGRDB) prepared immediately before use). The plate is then incubated overnight at ambient temperature in the dark.
Plates are analyzed on an Alpha Technology-compatible PHERAstar FS plate reader (BMG Labtech Version 1.14) to quantify phosphorylated eIF2α Ser51 levels. The percentage inhibition of phosphorylated eIF2α is calculated by comparison to control wells stimulated with borrelidin alone.
On the technique in general: Alpha assays give light when donor and acceptor beads are brought close together.

GCN2 kinase, sequence (Q9P2K8 whole entry): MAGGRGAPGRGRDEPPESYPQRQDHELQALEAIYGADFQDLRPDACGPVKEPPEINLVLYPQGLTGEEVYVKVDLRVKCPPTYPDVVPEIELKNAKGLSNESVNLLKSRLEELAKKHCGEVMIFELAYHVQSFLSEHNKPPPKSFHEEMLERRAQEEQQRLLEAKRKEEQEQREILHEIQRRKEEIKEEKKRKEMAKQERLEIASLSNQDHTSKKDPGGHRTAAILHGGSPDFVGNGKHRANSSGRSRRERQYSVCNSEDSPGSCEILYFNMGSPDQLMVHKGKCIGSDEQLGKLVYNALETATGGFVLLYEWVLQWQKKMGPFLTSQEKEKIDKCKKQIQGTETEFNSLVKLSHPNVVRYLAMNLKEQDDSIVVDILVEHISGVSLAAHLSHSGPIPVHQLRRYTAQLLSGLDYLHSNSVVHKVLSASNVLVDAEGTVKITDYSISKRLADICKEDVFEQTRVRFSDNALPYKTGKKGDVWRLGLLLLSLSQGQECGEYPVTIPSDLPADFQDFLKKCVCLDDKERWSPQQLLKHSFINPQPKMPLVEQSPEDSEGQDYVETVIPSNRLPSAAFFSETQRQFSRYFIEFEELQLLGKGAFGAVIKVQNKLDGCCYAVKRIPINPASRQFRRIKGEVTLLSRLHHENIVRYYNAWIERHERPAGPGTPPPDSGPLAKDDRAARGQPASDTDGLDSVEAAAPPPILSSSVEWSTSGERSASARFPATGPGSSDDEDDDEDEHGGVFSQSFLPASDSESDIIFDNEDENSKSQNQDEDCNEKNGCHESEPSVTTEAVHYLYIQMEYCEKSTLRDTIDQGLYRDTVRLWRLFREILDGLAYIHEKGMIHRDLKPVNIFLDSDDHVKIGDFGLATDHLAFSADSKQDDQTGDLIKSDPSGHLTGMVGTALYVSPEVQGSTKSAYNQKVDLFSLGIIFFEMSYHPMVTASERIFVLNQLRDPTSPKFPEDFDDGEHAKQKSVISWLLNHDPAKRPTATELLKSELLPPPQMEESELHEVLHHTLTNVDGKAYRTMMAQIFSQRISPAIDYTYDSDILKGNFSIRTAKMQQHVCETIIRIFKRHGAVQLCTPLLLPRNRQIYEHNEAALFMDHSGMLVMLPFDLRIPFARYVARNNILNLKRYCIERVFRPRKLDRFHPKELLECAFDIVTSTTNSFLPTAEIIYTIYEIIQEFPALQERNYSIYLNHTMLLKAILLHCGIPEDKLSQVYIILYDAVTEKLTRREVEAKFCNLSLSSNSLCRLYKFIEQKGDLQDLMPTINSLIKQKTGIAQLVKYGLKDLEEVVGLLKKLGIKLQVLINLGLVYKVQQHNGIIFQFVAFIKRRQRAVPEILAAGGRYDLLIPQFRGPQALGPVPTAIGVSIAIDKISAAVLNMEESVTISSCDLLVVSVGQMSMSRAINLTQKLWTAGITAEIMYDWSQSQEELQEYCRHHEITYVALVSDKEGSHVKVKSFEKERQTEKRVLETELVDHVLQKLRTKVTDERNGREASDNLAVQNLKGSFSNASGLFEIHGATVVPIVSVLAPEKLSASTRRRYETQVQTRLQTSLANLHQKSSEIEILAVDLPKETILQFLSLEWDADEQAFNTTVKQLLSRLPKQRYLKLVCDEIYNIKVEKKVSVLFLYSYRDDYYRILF
intracellular GCN2 (phosphorylation of the GCN2 substrate eIF2α), sequence (Q9P2K8 whole entry): as above

As for `Cc1cnc(N2C[C@H](C)C[C@@H](c3cn[nH]c3)C2)nc1-c1cnc2ccc(Cl)cn12` (stereo in doubt) [I-184, 6-chloro-3-(5-methyl-2-((3R,5S)-3-methyl-5-(1H-pyrazol-4-yl)piperidin-1-yl)pyrimidin-4-yl)imidazo[1,2-a]pyridine], the values for the IC50 in assay [1] and in assay [2] were 10 to 100 nM and below 500 nM, respectively.

For `Cc1cnc(N2C[C@@H](C)C[C@H](c3cn[nH]c3)C2)nc1-c1cnc2ccc(Cl)cn12` (stereo in doubt) [I-197, 6-chloro-3-(5-methyl-2-((3 S, 5R)-3-methyl-5-(1H-pyrazol-4-yl)piperidin-1-yl)pyrimidin-4-yl)imidazo[1,2-a]pyridine], the IC50 (usually the concentration needed to halve the response being measured) is 10 to 100 nM in assay [1] and below 500 nM in assay [2].

With `C[C@H]1C[C@H](c2cn[nH]c2)CN(c2nccc(-c3cnc4ccc(Cl)cn34)n2)C1` (stereo in doubt) [I-198, 6-chloro-3-(2-((3S,5R)-3-methyl-5-(1H-pyrazol-4-yl)piperidin-1-yl)pyrimidin-4-yl)imidazo[1,2-a]pyridine], the results for the IC50 in assay [1] and in assay [2] were below 10 nM and 500 to 5000 nM, respectively.

With `C[C@@H]1CCN(c2ccnc(-c3cnc4ccc(C(F)(F)F)cn34)n2)CC1F` (stereo in doubt) [I-240, 3-(4-((3R,4R)-3-fluoro-4-methylpiperidin-1-yl)pyrimidin-2-yl)-6-(trifluoromethyl)imidazo[1,2-a]pyridine], the IC50 in assay [1] is 100 to 1000 nM; in assay [2] it was 500 to 5000 nM.

For the molecule `C[C@@H](NS(C)(=O)=O)[C@@H]1CN(c2ccnc(-c3cnc4ccc(C(F)(F)F)cn34)n2)CCO1` (stereo in doubt) [I-404, N—((R)-1-((S)-4-(2-(6-(trifluoromethyl)imidazo[1,2-a]pyridin-3-yl)pyrimidin-4-yl)morpholin-2-yl)ethyl)methanesulfonamide], the IC50 in assay [1] was 10 to 100 nM; in assay [2] it was 500 to 5000 nM.

Turning to `C[C@H](NS(C)(=O)=O)[C@H]1CN(c2ccnc(-c3cnc4ccc(C(F)(F)F)cn34)n2)CCO1` (stereo in doubt) [I-405, N—((S)-1-((R)-4-(2-(6-(trifluoromethyl)imidazo[1,2-a]pyridin-3-yl)pyrimidin-4-yl)morpholin-2-yl)ethyl)methanesulfonamide], the IC50 in assay [1] lay within 10 to 100 nM; in assay [2], 500 to 5000 nM.

Consider `C[C@H]1[C@@H](CNS(C)(=O)=O)N(C2CC2)[C@@H](C)CN1c1ccnc(-c2cnc3ccc(C(F)(F)F)cn23)n1` (stereo in doubt) [I-491, N-(((2R,3 S,6S)-1-cyclopropyl-3,6-dimethyl-4-(2-(6-(trifluoromethyl)imidazo[1,2-a]pyridin-3-yl)pyrimidin-4-yl)piperazin-2-yl)methyl)methanesulfonamide], for which the values for the IC50 in assay [1] and in assay [2] were 10 to 100 nM and below 500 nM, respectively.

As to `C[C@@H]1[C@@H](CNS(C)(=O)=O)N(C2CC2)[C@H](C)CN1c1ccnc(-c2cnc3ccc(C(F)(F)F)cn23)n1` (stereo in doubt) [I-493, N-(((2R,3R,6R)-1-cyclopropyl-3,6-dimethyl-4-(2-(6-(trifluoromethyl)imidazo[1,2-a]pyridin-3-yl)pyrimidin-4-yl)piperazin-2-yl)methyl)methanesulfonamide], the values for the IC50 in assay [1] and in assay [2] were 10 to 100 nM and below 500 nM, respectively.

For the molecule `C[C@@H]1[C@H](CNS(C)(=O)=O)N(C2CC2)[C@H](C)CN1c1ccnc(-c2cnc3ccc(C(F)(F)F)cn23)n1` (stereo in doubt) [I-494, N-(((2S,3R,6R)-1-cyclopropyl-3,6-dimethyl-4-(2-(6-(trifluoromethyl)imidazo[1,2-a]pyridin-3-yl)pyrimidin-4-yl)piperazin-2-yl)methyl)methanesulfonamide], the concentration for half-maximal inhibition (IC50) in assay [1] fell in the range of 100 to 1000 nM; in assay [2] it was 500 to 5000 nM.

On to `FC(F)(F)c1ccc2ncc(-c3nccc(N4CCN(C5CC5)C(c5cn[nH]c5)C4)n3)n2c1` (stereo in doubt) [I-503, (R)-3-(4-(4-cyclopropyl-3-(1H-pyrazol-4-yl)piperazin-1-yl)pyrimidin-2-yl)-6-(trifluoromethyl)imidazo[1,2-a]pyridine], for which the IC50 in assay [1] is 10 to 100 nM; in assay [2], below 500 nM.

Turning to `COCC1(CN2CCN(c3ccnc(-c4cnc5ccc(C(F)(F)F)cn45)n3)[C@H](C)[C@@H]2c2cn[nH]c2)CCC1` (stereo in doubt) [I-511, 4-[(2R,3 S)-4-{[1-(methoxymethyl)cyclobutyl]methyl}-2-methyl-3-(1H-pyrazol-4-yl)piperazin-1-yl]-2-[6-(trifluoromethyl)imidazo[1,2-a]pyridin-3-yl]pyrimidine], the IC50 in assay [1] is below 10 nM; in assay [2], below 500 nM.

Take `CS(=O)(=O)NC[C@@H]1CN(c2ccnc(-c3cnc4ccc(C(F)(F)F)cn34)n2)CCO1` [I-1, N-[[(2S)-4-[2-[6-(Trifluoromethyl)imidazo[1,2-a]pyridin-3-yl]pyrimidin-4-yl]morpholin-2-yl]methyl]methanesulfonamide]: the Ki in assay [1] lay in the range of 10 to 100 nM. Besides, in assay [2], the IC50 is 500 to 5000 nM.

As for `CS(=N)(=O)C[C@H]1CCCN(c2ccnc(-c3cnc4ccc(C(F)(F)F)cn34)n2)C1` (some centres unmarked) [I-4, 3-(4-(3-((S-Methylsulfonimidoyl)methyl)piperidin-1-yl)pyrimidin-2-yl)-6-(trifluoromethyl)imidazo[1,2-a]pyridine], the Ki in assay [1] is 10 to 100 nM. The IC50 in assay [2] lay within 500 to 5000 nM.

Take `O=C1NCC2CN(c3ccnc(-c4cnc5ccc(C(F)(F)F)cn45)n3)CCN12` (centres unmarked) [I-5, 7-(2-(6-(Trifluoromethyl)imidazo[1,2-a]pyridin-3-yl)pyrimidin-4-yl)hexahydroimidazo[1,5-a]pyrazin-3(2H)-one]: in assay [1], the Ki was 10 to 100 nM. Besides, the IC50 in assay [2] lay in the range of 500 to 5000 nM.

`O=C1NCC2CN(c3ccnc(-c4cnc5ccc(C(F)(F)F)cn45)n3)CCN12` (centres unmarked) [I-6, 7-(2-(6-(trifluoromethyl)imidazo[1,2-a]pyridin-3-yl)pyrimidin-4-yl)hexahydroimidazo[1,5-a]pyrazin-3(2H)-one] had a Ki in assay [1] of 10 to 100 nM. The half-maximal inhibitory concentration (IC50) in assay [2] is 500 to 5000 nM.

`FC(F)(F)c1ccc2ncc(-c3ccnc(N4CCOC(c5cn[nH]c5)C4)n3)n2c1` (centres unmarked) [I-9, 2-(1H-Pyrazol-4-yl)-4-(4-(6-(trifluoromethyl)imidazo[1,2-a]pyridin-3-yl)pyrimidin-2-yl)morpholine]: the Ki in assay [1] was below 10 nM. Also, the half-inhibitory concentration (IC50) in assay [2] is below 500 nM.

In assay [1], `CC(=O)N1CCN(c2cccc(-c3cnc4ccc(C(F)(F)F)cn34)n2)CC1` [I-11, 1-[4-[6-[6-(Trifluoromethyl)imidazo[1,2-a]pyridin-3-yl]-2-pyridyl]piperazin-1-yl]ethanone] had a Ki of 10 to 100 nM. Further, the IC50 in assay [2] is above 5000 nM.

Consider `FC(F)(F)c1ccc2ncc(-c3cccc(N4CCOC(c5cn[nH]c5)C4)n3)n2c1` (centres unmarked) [I-12, 2-(1H-Pyrazol-4-yl)-4-[6-[6-(trifluoromethyl)imidazo[1,2-a]pyridin-3-yl]-2-pyridyl]morpholine], for which, in assay [1], the Ki was below 10 nM. Further, the IC50 in assay [2] is below 500 nM.

Turning to `CS(=O)(=O)NC[C@@H]1CN(c2ccnc(-c3cnc4ccc(C(F)F)cn34)n2)CCO1` [I-13, N-[[(2S)-4-[2-[6-(Difluoromethyl)imidazo[1,2-a]pyridin-3-yl]pyrimidin-4-yl]morpholin-2-yl]methyl]methanesulfonamide], in assay [1], the Ki was below 10 nM. For the same molecule, the 50% inhibitory concentration (IC50) in assay [2] fell in the range of 500 to 5000 nM.

On to `CC(=O)N1CCN(c2ccnc(-c3cnc4ccc(C(F)F)cn34)n2)CC1` [I-14, 1-[4-[2-[6-(Difluoromethyl)imidazo[1,2-a]pyridin-3-yl]pyrimidin-4-yl]piperazin-1-yl]ethanone], for which the Ki in assay [1] fell in the range of 10 to 100 nM. In assay [2], the half-maximal inhibitory concentration (IC50) lay within 500 to 5000 nM.

In the case of `FC(F)c1ccc2ncc(-c3nccc(N4CCOC(c5cn[nH]c5)C4)n3)n2c1` (centres unmarked) [I-15, 4-[2-[6-(Difluoromethyl)imidazo[1,2-a]pyridin-3-yl]pyrimidin-4-yl]-2-(1H-pyrazol-4-yl)morpholine], the Ki in assay [1] was below 10 nM. In addition, in assay [2], the concentration for half-maximal inhibition (IC50) is below 500 nM.

In assay [1], `CS(=O)(=O)NC[C@@H]1CN(c2nccc(-c3cnc4ccc(C(F)F)cn34)n2)CCO1` [I-17, N-[[(2S)-4-[4-[6-(Difluoromethyl)imidazo[1,2-a]pyridin-3-yl]pyrimidin-2-yl]morpholin-2-yl]methyl]methanesulfonamide] gave a Ki below 10 nM. The IC50 in assay [2] is below 500 nM.
